Data as given in US20100226919A1, “Antitumoral Treatments” (Pharma Mar, S.A., priority 2007, published 2010).
Read-outs that look alike come from different tables or passages of the source.

Key:
[1] = test system: colon (HT-29); conditions: cited from earlier work
[2] = test system: mouse leukemia (P388); conditions: cited from earlier work
[3] = test system: non-small cell lung (A549); conditions: cited from earlier work
[4] = test system: H1975 cells; conditions: read-out: IC50 (50% cell growth inhibition); H1975 (double EGFR mutant), 72 h exposure; range given for two cell lines of intermediate sensitivity
Text: (§1) Nine human NSCLC cell lines that were characterized for EGFR, Ras, and p53 gene expression and sensitivity to a variety of antitumor agents (paclitaxel, premetrexed, erlotinib, etc.) were used as models to examine the cell sensitivity to PM02734 trifluoroacetate salt. These NSCLC cell lines are the following: H322, A549, H661, H1299, H1975 with L858R and T790M EGFR double mutation, H358, H460, H1650 with L858R EGFR mutation, and H3255 with […]. […] H3255 cell line is a gift from Dr. Pasi A. Jänne (Dana-Farber Cancer Institute, Boston Mass.).
(§2) Exponentially growing cells (1×10^5/ml) were plated in 96-well plates and allowed to attach overnight. Cells were exposed to various concentrations of PM02734 trifluoroacetate salt at 37° C. for 72 hours.

[5] = test system: H1650 cells; conditions: read-out: IC50 (50% cell growth inhibition); H1650 (EGFR mutant), 72 h exposure; resistant cell lines
Text: as §1, §2

[6] = test system: H661 cells; conditions: read-out: IC50 (50% cell growth inhibition); H661, 72 h exposure; range given for four highly sensitive cell lines
Text: as §1, §2

[7] = test system: H358 cells; conditions: read-out: IC50 (50% cell growth inhibition); H358, 72 h exposure; resistant cell lines
Text: as §1, §2

[8] = test system: H3255 cells; conditions: read-out: IC50 (50% cell growth inhibition); H3255 (EGFR mutant), 72 h exposure; range given for four highly sensitive cell lines
Text: as §1, §2

[9] = test system: A549 cells; conditions: read-out: IC50 (50% cell growth inhibition); A549, 72 h exposure; range given for four highly sensitive cell lines
Text: as §1, §2
(§3) H322, A549, H1299 and H460 cells were plated in 96-well plates as described above. […] Enzyme Regul. […] The synergistic effects (CI index) were analyzed by software CalcuSyn.

[10] = test system: H322 cells; conditions: read-out: IC50 (50% cell growth inhibition); H322, 72 h exposure; range given for four highly sensitive cell lines
Text: as §1, §2, §3

[11] = test system: H1299 cells; conditions: read-out: IC50 (50% cell growth inhibition); H1299, 72 h exposure; range given for two cell lines of intermediate sensitivity
Text: as §1, §2, §3

[12] = test system: H460 cells; conditions: read-out: IC50 (50% cell growth inhibition); H460, 72 h exposure; resistant cell lines
Text: as §1, §2, §3

[13] = test system: H322 cells; test: Cell-cycle progression and apoptosis by propidium iodide FACS analysis; type: cell-based, human; conditions: H322, 0.5 μM, 0, 3, 6 and 24 hours
Procedure: H322 cells were plated in a 6-well plate and incubated with RPMI1640 medium with 10% fetal bovine serum at 37° C. overnight. […] At the indicated time point, cells were harvested by trypsinization and fixed with cold 75% ethanol at 4° C. overnight. Cells were incubated with 1 μg/ml of propidium iodide and 5 μg/ml of RNase I at room temperature for 3 hours. The cell-cycle distribution and apoptotic cells (Sub-G0/G1) were measured by FACS analysis (BD Biosciences, San Joes, Calif.).

[14] = test system: human A549 NSCLC cell line; test: A549 subcutaneous xenograft model in nude mice; type: in vivo; conditions: PM02734 0.1 mg/kg i.v. 3 times per week for 2 weeks; erlotinib 50 mg/kg p.o. 5 times per week for 2 weeks; p<0.001
Procedure: PM02734 was administered in its trifluoroacetate salt using water for injection as vehicle. Erlotinib was administered using sterile water as vehicle.
Nude mice (NUR-NU-F-M, female, 5-6 weeks old, Taconic Farm, Germantown N.Y.) were subcutaneously implanted with the human A549 NSCLC cell line (4.5×10^6 cells/mouse). Seven days later, mice were randomly divided into 4 groups with 5 mice per group. One group of mice received the combination treatment (PM02734: 0.1 mg/kg×3 times per week (on days 1, 3, and 5) for 2 weeks, i.v.; erlotinib: 50 mg/kg×5 times per week (on days 1, 2, 3, 4, and 5) for 2 weeks, p.o.). In this group erlotinib was given first followed two hours later by the administration of PM02734. The other groups were treated with PM02734 alone (0.1 mg/kg×3 times per week (on days 1, 3, and 5) for 2 weeks, i.v.), erlotinib alone (50 mg/kg×5 times per week (on days 1, 2, 3, 4, and 5) for 2 weeks, p.o.) or without treatment. Tumor size was measured twice a week. Tumor volume was calculated using the following equation: Tumor volume (mm^3)=0.5×longer diameter×(shorter diameter)^2 in millimeter. The experiment was terminated when ≧50% mice had tumors larger than 15 mm (i.e., the longer diameter>15 mm).

[15] = test system: H322 cells; conditions: only two of the nine cell lines sensitive; cited from earlier work
[16] = test system: H322 cells; conditions: from Ling et al., Mol Pharmacol 2007; cited from earlier work
[17] = test system: H3255 cells; conditions: only two of the nine cell lines sensitive; cited from earlier work

Compound: Kahalalide F
- in vitro antitumor activity [1]: micromolar activity
- in vitro antitumor activity [2]: micromolar activity
- in vitro antitumor activity [3]: micromolar activity

Compound: C/C=C1\NC(=O)[C@H](Cc2ccccc2)NC(=O)[C@@H](C(C)C)NC(=O)[C@@H]([C@@H](C)CC)NC(=O)[C@H](NC(=O)[C@H](NC(=O)[C@H](CCCN)NC(=O)[C@H]2CCCN2C(=O)[C@H](NC(=O)[C@@H](NC(=O)[C@@H](NC(=O)[C@H](NC(=O)CC[C@@H](C)CC)C(C)C)[C@@H](C)O)C(C)C)C(C)C)[C@@H](C)CC)[C@@H](C)OC(=O)[C@H](C(C)C)NC1=O [PM02734, (4S)-MeHex-D-Val-L-Thr-L-Val-D-Val-D-Pro-L-Orn-D-allo-Ile-cyclo(D-allo-Thr-D-allo-Ile-D-Val-L-Phe-Z-Dhb-L-Val)]
- IC50 [4]: 2 to 2.8 µM
- IC50 [5]: > 5 µM
- IC50 [6]: 0.3 to 1.25 µM
- IC50 [7]: > 5 µM
- IC50 [8]: 0.3 to 1.25 µM
- IC50 [9]: 0.3 to 1.25 µM
- IC50 [10]: 0.3 to 1.25 µM
- IC50 [11]: 2 to 2.8 µM
- IC50 [12]: > 5 µM
- apoptotic cells (Sub-G0/G1) [13]: apoptotic cell death in a time-dependent manner
- effect on cell-cycle progression [13]: cell cycle arrest at S-phase
- % treated vs. control tumor volume ratio (% T/C) [14]: 74%

Compound: C#Cc1cccc(Nc2ncnc3cc(OCCOC)c(OCCOC)cc23)c1 [erlotinib, Erlotinib]
- cell sensitivity to erlotinib [15]: sensitive
- effect on cell-cycle progression [16]: G1/S phase arrest
- cell sensitivity to erlotinib [17]: sensitive
